From patent US6737547B1, “Compositions containing and methods of using N-acyl-1H-aminoindenes” (Teva Pharmaceutical Industries, Ltd., priority 1998, dated 2004)
“Also recorded” adds a separate entry of the source.

Assays:
mice = assay: Protection against hypobaric hypoxia in mice (survival time); format: in vivo; details: for activity in the hypobaric hypoxia model (in words): dose of 25 mg/kg, listed in decreasing order of activity
Protocol: The apparatus used consisted of two chambers A and B connected by a three-way valve. […] The air in chamber A was evacuated to a pressure of 100 mm Hg. The three way valve was turned to disconnect chamber B from room air and to connect it to chamber A. At this point, the pressure in B fell to 200 mm Hg. Survival of residing mice was determined up to a maximum exposure of 15 minutes, and is defined as the time between onset of hypoxia to cessation of respiration.

Male ICR mice = assay: Protection against maximal electroshock-induced seizure in mice (MES); format: in vivo; details: for protected/total: electroshock 30 min after medication; for ED50: Mus musculus, median effective dose, maximal electroshock, mice, ip, read-out: ED50 (95% confidence limits)
Protocol: Male ICR mice were used. The rodent shocker apparatus consisted of a shock stimulator Type 221 (Hugo Sachs Elektronik, Germany) with a current setting for mice. Thirty minutes after medication with a given agent, given intraperitoneally as a fine slurry in methyl cellulose 0.5% in distilled water, each mouse received an electroshock of 50 mA for 0.2 seconds, applied to the eye, at a maximum of 250 V/300 mA. The ratio of mice protected against seizure in a group of four per dose was determined and used as an indicator of neuroprotective activity.
Protection of mice against seizures induced by electroshock is a widely used model to probe for potential anti-epileptic agents (see, for example, Y. I. Sohn et al., Anticonvulsant properties of diphenylthiohydantoin, Arch. Int. Pharmacodyn. 188, 284-289, 1970).

[1] = tested on: guinea-pig ileal preparation; assay: Decrease of contractile response to intramural electric stimulation in the guinea-pig ileal preparation; details: Cavia porcellus; calculated from logit plot; contractile response to intramural electric stimulation; read-out: EC50
Protocol: A 2 cm-long section of the distal ileum freshly dissected from a CO2-asphyxiated guinea pig is cleaned from adhering tissue and mounted in an organ bath (5 mL) containing Krebs solution constantly aerated with oxygen containing 5% CO2. The initial tension is adjusted at 5 g per strip. Tension is monitored isometrically with a Grass FTC3 force transducer. Intramural electric stimulation is delivered through a platinum electrode from a Grass stimulator model s88, s44 at supramaximal voltage (V) and a frequency of 0.1/s. The preparation develops a rhythmic contractile response at maximal amplitude which is stable over time. Addition of test drugs to the organ bath causes a dose-dependent decrease in contraction amplitude which is stable over 5-8 minutes. The relative decrease in contractile response indicates the relative potency of a given agent in a series.
Blocking or decreasing neural excitability evoked by programmed electric stimulation is another indicator of a compound's potential neuroprotective activity. A convenient test system uses the guinea-pig ileal preparation mounted in an organ bath (see, for example, Eiichi Hayashi et al., European J. Pharmacol 48, 297-307, 1978).

[2] = tested on: guinea-pig ileal preparation; assay: Decrease in contractile response of guinea-pig ileum evoked by the nicotinic agonist DMPP; details: for EC50: Cavia porcellus, calculated from logit plot, inhibiting contractile response to 1 uM DMPP, read-out: EC50
Protocol: A strip of guinea-pig ileum is mounted in an organ bath, as described in EXAMPLE 10. 1-N,N-dimethyl-4-N-phenylpiperazinium chloride (DMPP) is added at intervals of about 15 minutes in order of increasing dose, to cause bath concentrations in the range of 0.1-10 uM. A brief contraction follows each addition. The amplitude of the contractile response is used to derive a dose-response relationship for DMPP. Usually, a bath concentration of 1 uM DMPP will give 90-100% of the maximal response obtainable in the given preparation. One of two procedures follows this: A dose-response of a test compound is determined in the presence of a fixed concentration of DMPP. This is done by incubating the preparation with a given concentration of the test compound, then challenging it with DMPP at a dose to give 1 uM bath concentration. The procedure is repeated with the next higher concentration of the test compound. In the other procedure, the dose-response of DMPP is determined in the presence of a fixed bath concentration of the test compound, usually 200 uM.
When intramural nerve stimulation occurs, as in the case of electrical stimulation, the contractile effector substance is released from nerve endings by a depolarization wave that propagates along the parasympathetic nerve fiber until its junction with smooth muscle of the ileum. An alternative but not equivalent procedure is stimulation of parasympathetic ganglia by an appropriate nicotinic agonist such as 1-N,N-dimethyl-4-N-phenylpiperazinium chloride (DMPP). Stimulation of parasympathetic ganglia causes a depolarization wave in the post-ganglionic nerve fiber which terminates on the smooth muscle of the ileum, causing release of contractile effector and contraction (see, for example, E. S. Vizi, Acetylcholine release from guinea-pig ileum by parasympathetic ganglion stimulants and gastrin-like polypeptides, Br. J. Pharmacol. 47, 765-77. 1973).

[3] = tested on: guinea-pig ileal preparation; assay: Potentiation of adenosine depression of contractile response, procedure I (in the presence of test compound); details: adenosine 0.4 uM; drug conc. range (uM): 3, 20-400; 5, 50-200; 6, 25-50; drug present
Protocol: (§1) The test system used is the intramural electrically-stimulated guinea-pig ileal preparation as described in EXAMPLE 10. Adenosine added to the organ bath in rising concentrations in the range 0.1-10 uM causes a dose-dependent decrease in contraction amplitude, with an EC50 of about 1 uM.
In procedure I, the effect of a given concentration of adenosine, usually, 0.2 or 0.4 uM was first determined and related to the full contractile response in the absence of adenosine. […] The amplitude of the contractile response was recorded. Now, adenosine was added at the same dose initially used, and the effect of adenosine in the presence of the test compound was recorded.
(§2) The calculated effect is the product of the responses to each of the two agents when applied separately. The potentiation ratio is defined as (100%found)/(100-% calculated).

[4] = tested on: guinea-pig ileal preparation; assay: Potentiation of adenosine depression of contractile response, procedure II (after exposure to and washout of test compound); details: for Mean potentiation ratio ± SEM / potentiation ratio, Max / potentiation ratio, Min: adenosine 0.4 uM, after exposure and washout, 5, 50-400, 6, 50-400; for Mean potentiation ratio ± SEM: drug conc. (uM): 3, 100-400, 2a, 1000, 2, 1000; for potentiation ratio, Max / potentiation ratio, Min: drug conc. range (uM): 3, 100-400
Protocol: as §1, §2
In all cases, the difference between the calculated and observed response was statistically significant. […] In procedure II, the dose response to adenosine was determined before and after exposure of the preparation to the test drug and washout of the test drug from the organ bath. In this case, significant potentiation of adenosine was observed even though the test drug had been washed out from the organ bath. In fact, the potentiation ratio, as defined earlier, was even higher than found in the presence of the test compounds (Procedure I), reaching very high values.

[5] = Mus musculus, ip, mice, 200 mm Hg, read-out: survival ± SD (survival time as percent of vehicle control)
[6] = Mus musculus, 50 mg/kg, ip, mice, 200 mm Hg, read-out: survival ± SD (survival time as percent of vehicle control)

CC(=O)NC1=CCc2ccccc21 [Compound 3, N-Acetyl-3-amino-1H-indene]
protection over 2a (control) (mice; 50 mg/kg, mice): 1000% | side effects (mice; 50 mg/kg, mice): minor and transient side effects such as slight sedation, hypopnea and defecation | response vs control in vivo at 12.5 mg/kg (mice; Mus musculus, 12.5 mg/kg, ip, mice, 200 mm Hg, read-out: survival ± SD (survival time as percent of vehicle control)): 637 ± 341% | response vs control in vivo at 25 mg/kg (mice; [5]): 735 ± 238% | response vs control in vivo at 50 mg/kg (mice; [6]): 879 ± 237% | response vs control in vivo at 100 mg/kg (mice; [5]): 703 ± 242% | activity in the hypobaric hypoxia model (in words) (mice): strong activity | protected/total (Male ICR mice; 100 mg/kg intraperitoneally): 1/4 | protected/total (Male ICR mice; 125 mg/kg intraperitoneally): 2/4 | protected/total (Male ICR mice; 150 mg/kg intraperitoneally): 4/4 | ED50 (Male ICR mice): 116 mg/kg | EC50 [1]: 251 µM | EC50 [2]: 170 µM | reversibility of the depression by rising concentrations of DMPP ([2]; test compound at 200 uM fixed bath concentration, FIG. 8): not reversible; also recorded: irreversibly blocked | Mean potentiation ratio ± SEM [3]: 1.49 ± 0.075 | potentiation ratio, Max [3]: 1.74 | potentiation ratio, Min [3]: 1.29 | Mean potentiation ratio ± SEM [4]: 1.54 ± 0.25 | potentiation ratio, Max [4]: 1.99 | potentiation ratio, Min [4]: 1.14

CC(=O)NC1=CCc2cc(Cl)ccc21 [Compound 6, N-Acetyl-3-amino-6-chloro-1H-indene]
response vs control in vivo at 25 mg/kg (mice; [5]): 393 ± 110% | response vs control in vivo at 50 mg/kg (mice; [6]): 234 ± 120% | response vs control in vivo at 100 mg/kg (mice; [5]): 294 ± 267% | activity in the hypobaric hypoxia model (in words) (mice): strong activity | protected/total (Male ICR mice; 50 mg/kg intraperitoneally): 2/4 | protected/total (Male ICR mice; 100 mg/kg intraperitoneally): 4/4 | ED50 (Male ICR mice): 50 mg/kg | EC50 [1]: 133 µM | EC50 [2]: 27 µM | Mean potentiation ratio ± SEM [3]: 1.93 ± 0.39 | potentiation ratio, Max [3]: 2.32 | potentiation ratio, Min [3]: 1.54 | Mean potentiation ratio ± SEM [4]: 8.82 ± 1.2 | potentiation ratio, Max [4]: 12.28 | potentiation ratio, Min [4]: 6.86 | rate of restoration of the original response to adenosine after washout ([4]; after exposure to and washout of the potentiating agent): slowest | potentiating effect retained after wash-out from the organ bath (in words) ([4]; guinea pig ileal preparation after wash-out): prolonged potentiating effect
